Laboratory results: publication PMC8611036, “An integrated method for optimized identification of effective natural inhibitors against SARS-CoV-2 3CLpro” (Scientific Reports, 2021)

target: SARS-CoV-2 3CLpro (Severe acute respiratory syndrome coronavirus 2, UniProt P0DTD1); settings: SARS-CoV pIC50 multiplied by similarity index (SI), training set compounds

Row | Compound | SI*pIC50
1 | O=c1[nH]c2cc(Cl)cc(Cl)c2c(O)c1Sc1nnnn1-c1ccc(O)cc1 [CMP110] | 5.127
2 | O=C1C=CC(=O)c2cn(Cc3ccccc3)cc21 [CMP111] | 5.307
3 | Clc1ccc(C2C(n3ccnc3)C(c3ccc(Br)cc3)=NN2c2ccc(Cl)c(Cl)c2)cc1 (stereo not shown) [CMP112] | 5.754
4 | COc1ccccc1/N=C/c1nc(-c2ccccc2)oc1OC(C)=O [CMP113] | 5.6333
5 | CCn1c(NCc2ccc(N3N=C(c4ccccc4)CC3c3ccccc3)cc2)nc2ccccc21 (stereo not shown) [CMP114] | 5.228
6 | CCCn1c(NCc2ccc(N3N=C(c4ccccc4)CC3c3ccccc3)cc2)nc2ccccc21 (stereo not shown) [CMP115] | 5.249
7 | O=C1C(=O)N(c2cccc3ccccc23)c2ccc(I)cc21 [CMP117] | 6.11
8 | NC(=O)c1ccc2c(c1)C(=O)C(=O)N2c1cccc2ccccc12 [CMP118] | 6.584
9 | CN(C)c1ccc(C(=O)N[C@@H](Cc2ccccc2)C(=O)Nc2ccc([N+](=O)[O-])cc2Cl)cc1 [CMP119] | 7.374
10 | CC(=O)n1nc(SSc2ccccc2[N+](=O)[O-])nc1C [CMP120] | 5.656
11 | O=[N+]([O-])c1ccc(S(=O)(=O)c2ccc(Cl)cc2)[n+]([O-])c1 [CMP121] | 4.976
12 | CCOC(=O)C(C#N)=CNc1ccc(S(=O)(=O)c2ccc(NC=C(C#N)C(=O)OCC)cc2)cc1 [CMP122] | 4.948
13 | COc1cc(C=NNC(=O)C(=Cc2ccccc2)NC(=O)c2ccccc2)cc(OC)c1O [CMP123] | 4.265
14 | CC(C)C1=CC2=CC[C@@H]3[C@](C)(CCC[C@@]3(C)C(=O)O)[C@H]2CC1 [CMP124] | 3.875
15 | COC(=O)[C@]1(C)CCC[C@]2(C)c3ccc(C(C)C)cc3CC[C@@H]12 [CMP125] | 3.836
16 | CC1=C(O)C(=O)C=C2C1=CC=C1[C@@]2(C)CC[C@@]2(C)[C@@H]3C[C@@H](C)C(=O)C[C@]3(C)CC[C@]12C [CMP126] | 5.156
17 | Cc1coc2c1C(=O)C(=O)c1c-2ccc2c1CCCC2(C)C [CMP130] | 5.948
18 | Cc1coc2c1C(=O)C(=O)c1c-2ccc2c1CCCC2(C)CO (stereo not shown) [CMP131] | 5.122
19 | CC(C)c1cc2c(cc1O)[C@@]1(C)CCCC(C)(C)[C@@H]1CC2 [CMP132] | 4.457
20 | C=C[C@@]1(C)CC[C@H]2C(=CC[C@@H]3[C@]2(C)CCC[C@@]3(C)C(=O)O)C1 [CMP133] | 3.699
21 | O=C(CSc1ncnc2c1sc1nc(N3CCOCC3)c3c(c12)CCCC3)NCc1ccco1 [CMP134] | 4.194
22 | Nc1nc(CSc2nnc(-c3cccc4ccccc34)n2-c2ccccc2)cs1 [CMP135] | 4.386

system: SARS-CoV 3CLpro; format: biochemical; settings: activity class by pIC50 threshold 6

Row | Compound | Inact.(<6)/Act.(>=6)
23 | O=c1[nH]c2cc(Cl)cc(Cl)c2c(O)c1Sc1nnnn1-c1ccc(O)cc1 [CMP110] | Inact. (Inact.(<6))
24 | O=C1C=CC(=O)c2cn(Cc3ccccc3)cc21 [CMP111] | Inact. (Inact.(<6))
25 | Clc1ccc(C2C(n3ccnc3)C(c3ccc(Br)cc3)=NN2c2ccc(Cl)c(Cl)c2)cc1 (stereo not shown) [CMP112] | Inact. (Inact.(<6))
26 | COc1ccccc1/N=C/c1nc(-c2ccccc2)oc1OC(C)=O [CMP113] | Inact. (Inact.(<6))
27 | CCn1c(NCc2ccc(N3N=C(c4ccccc4)CC3c3ccccc3)cc2)nc2ccccc21 (stereo not shown) [CMP114] | Inact. (Inact.(<6))
28 | CCCn1c(NCc2ccc(N3N=C(c4ccccc4)CC3c3ccccc3)cc2)nc2ccccc21 (stereo not shown) [CMP115] | Inact. (Inact.(<6))
29 | O=C1C(=O)N(c2cccc3ccccc23)c2ccc(I)cc21 [CMP117] | Inact. (Inact.(<6))
30 | NC(=O)c1ccc2c(c1)C(=O)C(=O)N2c1cccc2ccccc12 [CMP118] | Act. (Act.(>=6))
31 | CN(C)c1ccc(C(=O)N[C@@H](Cc2ccccc2)C(=O)Nc2ccc([N+](=O)[O-])cc2Cl)cc1 [CMP119] | Act. (Act.(>=6))
32 | CC(=O)n1nc(SSc2ccccc2[N+](=O)[O-])nc1C [CMP120] | Inact. (Inact.(<6))
33 | O=[N+]([O-])c1ccc(S(=O)(=O)c2ccc(Cl)cc2)[n+]([O-])c1 [CMP121] | Inact. (Inact.(<6))
34 | CCOC(=O)C(C#N)=CNc1ccc(S(=O)(=O)c2ccc(NC=C(C#N)C(=O)OCC)cc2)cc1 [CMP122] | Inact. (Inact.(<6))
35 | COc1cc(C=NNC(=O)C(=Cc2ccccc2)NC(=O)c2ccccc2)cc(OC)c1O [CMP123] | Inact. (Inact.(<6))
36 | CC(C)C1=CC2=CC[C@@H]3[C@](C)(CCC[C@@]3(C)C(=O)O)[C@H]2CC1 [CMP124] | Inact. (Inact.(<6))
37 | COC(=O)[C@]1(C)CCC[C@]2(C)c3ccc(C(C)C)cc3CC[C@@H]12 [CMP125] | Inact. (Inact.(<6))
38 | CC1=C(O)C(=O)C=C2C1=CC=C1[C@@]2(C)CC[C@@]2(C)[C@@H]3C[C@@H](C)C(=O)C[C@]3(C)CC[C@]12C [CMP126] | Inact. (Inact.(<6))
39 | Cc1coc2c1C(=O)C(=O)c1c-2ccc2c1CCCC2(C)C [CMP130] | Inact. (Inact.(<6))
40 | Cc1coc2c1C(=O)C(=O)c1c-2ccc2c1CCCC2(C)CO (stereo not shown) [CMP131] | Inact. (Inact.(<6))
41 | CC(C)c1cc2c(cc1O)[C@@]1(C)CCCC(C)(C)[C@@H]1CC2 [CMP132] | Inact. (Inact.(<6))
42 | C=C[C@@]1(C)CC[C@H]2C(=CC[C@@H]3[C@]2(C)CCC[C@@]3(C)C(=O)O)C1 [CMP133] | Inact. (Inact.(<6))
43 | O=C(CSc1ncnc2c1sc1nc(N3CCOCC3)c3c(c12)CCCC3)NCc1ccco1 [CMP134] | Inact. (Inact.(<6))
44 | Nc1nc(CSc2nnc(-c3cccc4ccccc34)n2-c2ccccc2)cs1 [CMP135] | Inact. (Inact.(<6))

system: SARS-CoV 3CLpro; settings: SARS-CoV 3CLpro inhibitors (training set), from literature IC50; ref: per compound; cited from earlier work

Row | Compound | pIC50
45 | O=c1[nH]c2cc(Cl)cc(Cl)c2c(O)c1Sc1nnnn1-c1ccc(O)cc1 [CMP110] | 4.975
46 | O=C1C=CC(=O)c2cn(Cc3ccccc3)cc21 [CMP111] | 5.1549
47 | Clc1ccc(C2C(n3ccnc3)C(c3ccc(Br)cc3)=NN2c2ccc(Cl)c(Cl)c2)cc1 (stereo not shown) [CMP112] | 5.602
48 | COc1ccccc1/N=C/c1nc(-c2ccccc2)oc1OC(C)=O [CMP113] | 5.481
49 | CCn1c(NCc2ccc(N3N=C(c4ccccc4)CC3c3ccccc3)cc2)nc2ccccc21 (stereo not shown) [CMP114] | 5.076
50 | CCCn1c(NCc2ccc(N3N=C(c4ccccc4)CC3c3ccccc3)cc2)nc2ccccc21 (stereo not shown) [CMP115] | 5.097
51 | O=C1C(=O)N(c2cccc3ccccc23)c2ccc(I)cc21 [CMP117] | 5.959
52 | NC(=O)c1ccc2c(c1)C(=O)C(=O)N2c1cccc2ccccc12 [CMP118] | 6.4318
53 | CN(C)c1ccc(C(=O)N[C@@H](Cc2ccccc2)C(=O)Nc2ccc([N+](=O)[O-])cc2Cl)cc1 [CMP119] | 7.222
54 | CC(=O)n1nc(SSc2ccccc2[N+](=O)[O-])nc1C [CMP120] | 5.504
55 | O=[N+]([O-])c1ccc(S(=O)(=O)c2ccc(Cl)cc2)[n+]([O-])c1 [CMP121] | 4.824
56 | CCOC(=O)C(C#N)=CNc1ccc(S(=O)(=O)c2ccc(NC=C(C#N)C(=O)OCC)cc2)cc1 [CMP122] | 4.796
57 | COc1cc(C=NNC(=O)C(=Cc2ccccc2)NC(=O)c2ccccc2)cc(OC)c1O [CMP123] | 4.113
58 | CC(C)C1=CC2=CC[C@@H]3[C@](C)(CCC[C@@]3(C)C(=O)O)[C@H]2CC1 [CMP124] | 3.723
59 | COC(=O)[C@]1(C)CCC[C@]2(C)c3ccc(C(C)C)cc3CC[C@@H]12 [CMP125] | 3.684
60 | CC1=C(O)C(=O)C=C2C1=CC=C1[C@@]2(C)CC[C@@]2(C)[C@@H]3C[C@@H](C)C(=O)C[C@]3(C)CC[C@]12C [CMP126] | 5.004
61 | Cc1coc2c1C(=O)C(=O)c1c-2ccc2c1CCCC2(C)C [CMP130] | 5.796
62 | Cc1coc2c1C(=O)C(=O)c1c-2ccc2c1CCCC2(C)CO (stereo not shown) [CMP131] | 4.971
63 | CC(C)c1cc2c(cc1O)[C@@]1(C)CCCC(C)(C)[C@@H]1CC2 [CMP132] | 4.305
64 | C=C[C@@]1(C)CC[C@H]2C(=CC[C@@H]3[C@]2(C)CCC[C@@]3(C)C(=O)O)C1 [CMP133] | 3.547
65 | O=C(CSc1ncnc2c1sc1nc(N3CCOCC3)c3c(c12)CCCC3)NCc1ccco1 [CMP134] | 4.0423
66 | Nc1nc(CSc2nnc(-c3cccc4ccccc34)n2-c2ccccc2)cs1 [CMP135] | 4.234

same assay, conditions: SARS-CoV 3CLpro inhibitors (training set), literature values; ref: per compound; cited from earlier work

Row | Compound | IC50 [µM]
67 | O=c1[nH]c2cc(Cl)cc(Cl)c2c(O)c1Sc1nnnn1-c1ccc(O)cc1 [CMP110] | 10.6
68 | O=C1C=CC(=O)c2cn(Cc3ccccc3)cc21 [CMP111] | 7
69 | Clc1ccc(C2C(n3ccnc3)C(c3ccc(Br)cc3)=NN2c2ccc(Cl)c(Cl)c2)cc1 (stereo not shown) [CMP112] | 2.5
70 | COc1ccccc1/N=C/c1nc(-c2ccccc2)oc1OC(C)=O [CMP113] | 3.3
71 | CCn1c(NCc2ccc(N3N=C(c4ccccc4)CC3c3ccccc3)cc2)nc2ccccc21 (stereo not shown) [CMP114] | 8.4
72 | CCCn1c(NCc2ccc(N3N=C(c4ccccc4)CC3c3ccccc3)cc2)nc2ccccc21 (stereo not shown) [CMP115] | 8
73 | O=C1C(=O)N(c2cccc3ccccc23)c2ccc(I)cc21 [CMP117] | 1.1
74 | NC(=O)c1ccc2c(c1)C(=O)C(=O)N2c1cccc2ccccc12 [CMP118] | 0.37
75 | CN(C)c1ccc(C(=O)N[C@@H](Cc2ccccc2)C(=O)Nc2ccc([N+](=O)[O-])cc2Cl)cc1 [CMP119] | 0.06
76 | CC(=O)n1nc(SSc2ccccc2[N+](=O)[O-])nc1C [CMP120] | 3.13
77 | O=[N+]([O-])c1ccc(S(=O)(=O)c2ccc(Cl)cc2)[n+]([O-])c1 [CMP121] | 15
78 | CCOC(=O)C(C#N)=CNc1ccc(S(=O)(=O)c2ccc(NC=C(C#N)C(=O)OCC)cc2)cc1 [CMP122] | 16
79 | COc1cc(C=NNC(=O)C(=Cc2ccccc2)NC(=O)c2ccccc2)cc(OC)c1O [CMP123] | 77.1
80 | CC(C)C1=CC2=CC[C@@H]3[C@](C)(CCC[C@@]3(C)C(=O)O)[C@H]2CC1 [CMP124] | 189
81 | COC(=O)[C@]1(C)CCC[C@]2(C)c3ccc(C(C)C)cc3CC[C@@H]12 [CMP125] | 207
82 | CC1=C(O)C(=O)C=C2C1=CC=C1[C@@]2(C)CC[C@@]2(C)[C@@H]3C[C@@H](C)C(=O)C[C@]3(C)CC[C@]12C [CMP126] | 9.91
83 | Cc1coc2c1C(=O)C(=O)c1c-2ccc2c1CCCC2(C)C [CMP130] | 1.6
84 | Cc1coc2c1C(=O)C(=O)c1c-2ccc2c1CCCC2(C)CO (stereo not shown) [CMP131] | 10.7
85 | CC(C)c1cc2c(cc1O)[C@@]1(C)CCCC(C)(C)[C@@H]1CC2 [CMP132] | 49.6
86 | C=C[C@@]1(C)CC[C@H]2C(=CC[C@@H]3[C@]2(C)CCC[C@@]3(C)C(=O)O)C1 [CMP133] | 284
87 | O=C(CSc1ncnc2c1sc1nc(N3CCOCC3)c3c(c12)CCCC3)NCc1ccco1 [CMP134] | 90.7
88 | Nc1nc(CSc2nnc(-c3cccc4ccccc34)n2-c2ccccc2)cs1 [CMP135] | 58.3
